Holding throughout (experiment): Postemergence herbicidal activity
Format in all cases: in vivo

The subject of assay [1] is lambsquarter (Chenopodium album). To be noted: post-emergent, after 14 days; for pest or weed control at 140 g/ha / % Control CHEAL: 140 g ai/ha. Here is the method:
(§1) Seeds or nutlets of the desired test plant species were planted in Sun Gro MetroMix® 306 planting mixture, which typically has a pH of 6.0 to 6.8 and an organic matter content of about 30 percent, in plastic pots with a surface area of 64 square centimeters. When required to ensure good germination and healthy plants, a fungicide treatment and/or other chemical or physical treatment was applied. The plants were grown for 7-21 days in a greenhouse with an approximate 15 hour photoperiod which was maintained at about 23-29° C. during the day and 22-28° C. during the night. Nutrients and water were added on a regular basis and supplemental lighting was provided with overhead metal halide 1000-Watt lamps as necessary. The plants were employed for testing when they reached the first or second true leaf stage. […] The concentrated stock solutions obtained were diluted with 20 mL of an aqueous mixture containing acetone, water, isopropyl alcohol, DMSO, Atplus 411F crop oil concentrate, and Triton® X-155 surfactant in a 48.5:39:10:1.5:1.0:0.02 v/v ratio to obtain spray solutions containing the highest application rates. […] Compound requirements are based upon a 12 mL application volume at a rate of 187 L/ha. Formulated compounds were applied to the plant material with an overhead Mandel track sprayer equipped with a […] nozzles calibrated to deliver 187 L/ha over an application area of 0.503 square meters at a spray height of 18 inches (43 cm) above the average plant canopy height. Control plants were sprayed in the same manner with the solvent blank. The treated plants and control plants were placed in a greenhouse as described above and watered by sub-irrigation to prevent wash-off of the test compounds. […] By applying the well-accepted probit analysis as described by J. Berkson in Journal of the American Statistical […], 48, 565 (1953) and by D.

The subject of assay [2] is redroot pigweed (Amaranthus retroflexus). The following applies: post-emergent, after 14 days; for pest or weed control at 140 g/ha / % Control AMARE: 140 g ai/ha. Here is the method: as §1
The test system of assay [3] is velvetleaf (Abutilon theophrasti). The following applies: post-emergent, after 14 days; for pest or weed control at 140 g/ha / % Control ABUTH: 140 g ai/ha. The method, then: as §1
Setting [4] is: Chenopodium album, post-emergence, 336 h, read-out: % Control CHEAL.
The mark [5] stands for this setting: Amaranthus retroflexus, post-emergence, 336 h, read-out: % Control AMARE.
[6] abbreviates: Abutilon theophrasti, post-emergence, 336 h, read-out: % Control ABUTH.

As for `COC(=O)c1nc(-c2ccc(Cl)c(C)c2Cl)cc(N)c1Cl` [Compound 48, 4-Amino-3-chloro-6-(2,4-dichloro-3-methylphenyl)pyridine-2-carboxylic acid methyl ester], the pest or weed control at 101 g/ha in assay [1] (Chenopodium album, post-emergence, 336 h, 101 g ai/ha, read-out: % Control CHEAL) came to 85%; in assay [2] (Amaranthus retroflexus, post-emergence, 336 h, 101 g ai/ha, read-out: % Control AMARE), 80%; in assay [3] (Abutilon theophrasti, post-emergence, 336 h, 101 g ai/ha, read-out: % Control ABUTH), 98%.

In the case of `COC(=O)c1nc(-c2ccc(Cl)c(S(C)(=O)=O)c2F)cc(N)c1Cl` [Compound 84, 4-amino-3-chloro-6-(4-chloro-2-fluoro-3-methanesulfonylphenyl)pyridine-2-carboxylic acid methyl ester], the pest or weed control at 140 g/ha in assay [1] (setting [4]) was determined as 70%; in assay [2] (setting [5]) it was 75%; in assay [3] (setting [6]) it was 80%.

As to `COC(=O)c1nc(-c2c(F)cc(Cl)c(C)c2F)cc(N)c1Cl` [Compound 75, 4-Amino-3-chloro-6-(4-chloro-2,6-difluoro-3-methylphenyl)pyridine-2-carboxylic acid, methyl ester], the pest or weed control at 140 g/ha in assay [1] (setting [4]) came to 95%; in assay [2] (setting [5]) it was 95%; in assay [3] (setting [6]), 100%.

Consider `CCCCOc1c(Cl)ccc(-c2cc(N)c(Cl)c(C(=O)OC)n2)c1F` [Compound 60, 4-Amino-3-chloro-6-(4-chloro-3-butoxy-2-fluorophenyl)pyridine-2-carboxylic acid, methyl ester], for which the values for the pest or weed control at 140 g/ha in assay [1] (setting [4]), in assay [2] (setting [5]) and in assay [3] (setting [6]) were 90%, 90% and 55%, respectively.

In the case of `Nc1cc(-c2ccc(Cl)c(CF)c2F)nc(C(=O)O)c1Cl` [Compound 114, 4-Amino-3-chloro-6-(4-chloro-2-fluoro-3-fluoromethylphenyl)pyridine-2-carboxylic acid], the pest or weed control at 140 g/ha worked out at 95% in assay [1] (setting [4]), 85% in assay [2] (setting [5]) and 95% in assay [3] (setting [6]).

As to `COC(=O)c1nc(-c2ccc(Cl)c([S+](C)[O-])c2F)cc(N)c1Cl` (stereo not drawn) [Compound 83, 4-amino-3-chloro-6-(4-chloro-2-fluoro-3-methanesulfinyl-phenyl)pyridine-2-carboxylic acid methyl ester], the figures for the pest or weed control at 140 g/ha in assay [1] (setting [4]), in assay [2] (setting [5]) and in assay [3] (setting [6]) were 85%, 85% and 90%, respectively.

Consider `COC(=O)c1nc(-c2ccc(C#N)c(OC)c2F)cc(N)c1Cl` [Compound 6, 4-Amino-3-chloro-6-(4-cyano-2-fluoro-3-methoxyphenyl)pyridine-2-carboxylic acid methyl ester], for which the pest or weed control at 140 g/ha in assay [1] (setting [4]) was found to be 95%; in assay [2] (setting [5]), 100%; in assay [3] (setting [6]), 90%.

On to `COC(=O)c1nc(-c2ccc(Cl)c(C(=O)OC)c2F)cc(N)c1Cl` [Compound 39, 4-Amino-3-chloro-6-[4-chloro-2-fluoro-3-(methoxycarbonyl)phenyl]pyridine-2-carboxyic acid, methyl ester], for which the “% Control CHEAL” value in assay [1] was found to be 95%. In addition, the “% Control AMARE” value in assay [2] was found to be 75%. The “% Control ABUTH” value in assay [3] was found to be 90%.

In the case of `COC(=O)c1nc(-c2ccc(F)c(OC)c2Cl)cc(NC(C)=O)c1Cl` [Compound 29, 4-Acetylamino-3-chloro-(2-chloro-4-fluoro-3-methoxyphenyl)pyridine-2-carboxylic acid, methyl ester], the “% Control CHEAL” value in assay [1] came out at 98%. Further, the “% Control AMARE” value in assay [2] worked out at 40%. In assay [3], the “% Control ABUTH” value came out at 95%.

As to `COC(=O)c1nc(-c2ccc(F)c(OC)c2F)cc(NC(C)=O)c1Cl` [Compound 28, 4-Acetylamino-3-chloro-(2,4-difluoro-3-methoxyphenyl)pyridine-2-carboxylic acid, methyl ester], in assay [1], the “% Control CHEAL” value came to 95%. The “% Control AMARE” value in assay [2] came to 100%. Besides, the “% Control ABUTH” value in assay [3] stood at 100%.

Take `COC(=O)c1nc(-c2ccc(CF)c(OC)c2F)cc(N)c1Cl` [Compound 72, 4-Amino-3-chloro-6-(2-fluoro-4-fluoromethyl-3-methoxyphenyl)pyridine-2-carboxylic acid, methyl ester]: the pest or weed control at 140 g/ha in assay [1] (setting [4]) is 80%; in assay [2] (setting [5]), 20%; in assay [3] (setting [6]), 100%.

In the case of `COC(=O)c1nc(-c2c(F)cc(F)c(OC)c2Cl)cc(N)c1Cl` [Compound 55, 4-Amino-3-chloro-(2-chloro-4,6-difluoro-3-methoxyphenyl)pyridine-2-carboxylic acid, methyl ester], the “% Control CHEAL” value in assay [1] is given as 90%. Also, the “% Control AMARE” value in assay [2] was found to be 100%. Moreover, the “% Control ABUTH” value in assay [3] amounted to 100%.

Take `COC(=O)c1nc(-c2c(F)cc(F)c(C(F)F)c2F)cc(N)c1Cl` [Compound 78, 4-Amino-3-chloro-6-(3-difluoromethyl-2,4,6-trifluorophenyl)pyridine-2-carboxylic acid, methyl ester]: the pest or weed control at 140 g/ha in assay [1] (setting [4]) was found to be 100%; in assay [2] (setting [5]) it was 100%; in assay [3] (setting [6]), 90%.

Turning to `CCC(F)c1c(Cl)ccc(-c2cc(N)c(Cl)c(C(=O)OC)n2)c1F` (stereo not drawn) [Compound 66, 4-Amino-3-chloro-6-[4-chloro-2-fluoro-3-(1-fluoropropyl)phenyl]pyridine-2-carboxylic acid, methyl ester], in assay [1], the “% Control CHEAL” value worked out at 95%. The “% Control AMARE” value in assay [2] came to 100%. The “% Control ABUTH” value in assay [3] is 90%.

Regarding `Cc1c(F)ccc(-c2cc(N)c(Cl)c(C(=O)O)n2)c1F` [Compound 97, 4-Amino-3-chloro-(2,4-difluoro-3-methylphenyl)pyridine-2-carboxylic acid], the “% Control CHEAL” value in assay [1] is recorded as 80%. For the same compound, the “% Control AMARE” value in assay [2] was 85%. Also, in assay [3], the “% Control ABUTH” value amounted to 65%.

As for `COC(=O)c1nc(-c2ccc(Cl)c(N(C)C)c2Cl)cc(N)c1Cl` [Compound 37, 4-Amino-3-chloro-6-[2,4-dichloro-3-(dimethylamino)phenyl]pyridine-2-carboxylic acid, methyl ester], the pest or weed control at 140 g/ha in assay [1] (setting [4]), in assay [2] (setting [5]) and in assay [3] (setting [6]) was 100% throughout.

Turning to `CCC(F)c1c(Cl)ccc(-c2cc(NC(C)=O)c(Cl)c(C(=O)OC)n2)c1F` (stereo not drawn) [Compound 32, 4-Acetylamino-3-chloro-6-[4-chloro-2-fluoro-3-(1-fluoropropyl)-phenyl]pyridine-2-carboxylic acid, methyl ester], the values for the pest or weed control at 140 g/ha in assay [1] (setting [4]), in assay [2] (setting [5]) and in assay [3] (setting [6]) were 50%, 80% and 60%, respectively.

As for `CC(C)(F)c1c(Cl)ccc(-c2cc(N)c(Cl)c(C(=O)O)n2)c1Cl` [Compound 127], in assay [1], the “% Control CHEAL” value turned out to be 100%. Further, the “% Control AMARE” value in assay [2] is reported as 100%. Moreover, in assay [3], the “% Control ABUTH” value came out at 90%.

For the compound `COC(=O)c1nc(-c2ccc(Cl)c(C(C)(C)F)c2F)cc(N)c1Cl` [Compound 25, 4-Amino-3-chloro-6-[4-chloro-2-fluoro-3-(1-fluoro-1-methylethyl)phenyl]-pyridine-2-carboxlic acid, methyl ester], the “% Control CHEAL” value in assay [1] stood at 100%. Moreover, in assay [2], the “% Control AMARE” value is 100%. Also, the “% Control ABUTH” value in assay [3] was 100%.

Source of the values: patent US20070179060A1, “6-(Poly-substituted aryl)-4-aminopicolinates and their use as herbicides” (priority 2006, published 2007).
